{"source": "patent US20050119243A1", "about": "“HIF-1 inhibitors and methods of use thereof” (priority 2003, published 2005)", "key": {"[1]": {"test_system": "HIF-1α", "assay": "Western blot analysis of HIF-1α in HEK 293 cells under hypoxic conditions", "type": "cell-based, human", "conditions": "for HIF-1α levels by Western blot: 2 hours under 1% O2", "method": "(§1) HT 144 melanoma cells (FIG. 16(A)) and HEK 293 embryonic kidney cells (FIG. 16(B)) were incubated for 2 hours under 1% O2. HIF-1α […]."}, "[2]": {"test_system": "HIF-1α", "assay": "Western blot analysis of HIF-1α in HEK 293 cells with or without proteosome inhibitor MG-132, ambient oxygen", "type": "cell-based, human", "conditions": "HEK 293, ambient oxygen; for HIF-1α detection by Western blot: 2 hours, agent without further addition; for HIF-1α detection by Western blot with MG-132 added: agent plus MG-132", "method": "Proteosomal degradation of HIF-1α was assessed in HEK 293 embryonic kidney cells treated with DBM alone, Zn^2+ alone or the combination under ambient oxygen in the presence or absence of the proteosome inhibitor MG-132 (FIG. 18). […] (FIG. 18, lane 5). […] The HIF-1α isoforms are more clearly resolved on the gel from FIG. 18 than FIG. 15. This may be due to differences in the time the gels were run."}, "[3]": {"test_system": "HIF-1α mRNA", "assay": "Semiquantitative PCR of HIF-1α mRNA levels in HEK 293 cells under normoxia", "type": "cell-based, human", "conditions": "HEK 293, normoxia, 2 hours, serum free media", "method": "The effects of DBM alone, Zn^2+ alone and DBM plus Zn^2+ on HIF-1αmRNA levels were assessed by semiquantitative PCR in extracts of HEK 293 kidney cells under normoxia for 2 hours in serum free media (FIG. 17). […] HIF-1αZ mRNA levels were not found to be increased (data not shown)."}, "[4]": {"test_system": "HIF-1α", "assay": "Western blot analysis of HIF-1α in HEK 293 cells under ambient oxygen", "type": "cell-based, human", "conditions": "HEK 293, ambient oxygen, 1 hr", "method": "The first unexpected finding was that the combination of DBM plus Zn^2+ reversed the induced stabilization of HIF-1α observed when the cells were exposed to either DBM or Zn^2+ alone under normoxic conditions (FIG. 15). HEK 293 embryonic kidney cells were incubated at ambient levels of oxygen for 1 hr with the addition of DBM alone, Zn^2+ alone or the combination. HIF-1α was not detected at baseline by Western blot (FIG. 15, lane 1).\nOne possible explanation for the loss of HIF-1α stabilization in cells treated with DBM plus Zn^2+ is chelation. DBM is a bidentate metal chelator that could itself bind to Zn^2+ in a 2:1 stochiometric ratio, however, the observed loss of HIF-1α stabilization occurred when either DBM or Zn^2+ was present in 50 μM excess at ratios of 4:1 (FIG. 15, lane 3) and 1:1 (FIG. 15, lane 5), respectively. […] Presumably, the increases in HIF-1α in FIG. 15 resulted from HIF P4H inhibition leading to diminished prolyl-4-hydroxylation and disruption of proteosomal degradation."}, "[5]": {"test_system": "HIF-1α", "assay": "Western blot analysis of HIF-1α in HT144 melanoma cells under hypoxic conditions", "type": "cell-based, human", "conditions": "HT 144 cells; for HIF-1α levels by Western blot: 2 hours under 1% O2", "method": "as §1"}, "[6]": {"test_system": "HIF-1α", "assay": "HIF-1α detection in HEK 293 and HT144 cells treated with DBM plus metals", "type": "cell-based, human", "conditions": "cells exposed to DBM plus the metal", "text": "In subsequent studies, similar data has been found for HEK 293 human embryonic kidney cells and HT144 melanoma cells treated with either DBM or Zn^2+. […] This finding appears to be unique to the combination of DBM with Zn^2+ since it was not observed in cells exposed to DBM plus other metals such as Fe^3+, Co^2+, Cd^2+, and Ni^2+. Furthermore, this unexpected reversal of the independent effects of DBM and Zn^2+ was not blocked by hypoxia. These observations are counterintuitive since inhibitors of HIF P4H should impede degradation of HIF-1α. Also, these two HIF P4H inhibitors appear to work in concert under inhibitory conditions to down-regulate HIF-1α with little effect on HIF-1α mRNA levels."}, "[7]": {"test_system": "HIF-1α", "assay": "Western blot analysis of HIF-1α in VHL (−/−) RCC-4 renal cell carcinoma cells, normoxic", "type": "cell-based, human", "conditions": "RCC-4 VHL (−/−), 1 hour", "text": "As expected, HIF-1α was detected by Western blot under normoxic conditions (FIG. 19, lane 1). […] These experiments have not been performed as yet in RCC4 cells with DBM alone or in RCC4 cells transfected with pVHL."}, "[8]": {"test_system": "HIF-1α and VEGF", "conditions": "LNCaP cells, ambient O2; cited from earlier work"}, "[9]": {"test_system": "VEGF", "sequence (P15692 207-311 limits assumed)": "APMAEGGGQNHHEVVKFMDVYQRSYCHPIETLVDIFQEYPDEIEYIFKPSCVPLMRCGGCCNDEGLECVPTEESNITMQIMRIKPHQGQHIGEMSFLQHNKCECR", "conditions": "patients with metastatic kidney cancer, high doses; cited from earlier work"}}, "note": "Residues, ends and D or L forms follow the SMILES beside them. *: point of attachment. Cbz = O=C(OCc1ccccc1)*", "data": [{"compound": "[Zn+2]", "note": "[Zn^2+]", "values": [{"measurement": "HIF-1α levels by Western blot", "setting": "[1]", "value": "little effect"}, {"measurement": "HIF-1α detection by Western blot", "setting": "[2]", "value": "readily detected"}, {"measurement": "HIF-1α detection by Western blot with MG-132 added", "setting": "[2]", "value": "did not stabilize these other forms of HIF-1α"}, {"measurement": "HIF-1α mRNA levels (PCR product)", "setting": "[3]", "value": "not significantly different from baseline"}, {"measurement": "HIF-1α levels by Western blot", "setting": "[4]; Zn^2+ alone 25 μM to 100 μM", "value": "increased HIF-1α levels in a dose dependent manner"}, {"measurement": "HIF-1α levels by Western blot", "setting": "[5]", "value": "decreased the more rapidly migrating isoforms of HIF-1α"}]}, {"compound": "[Cd+2]", "note": "[Cd^2+]", "values": [{"measurement": "Loss of HIF-1α detection on simultaneous treatment with DBM plus metal", "setting": "[6]", "value": "not observed"}]}, {"compound": "CC(C)C[C@@H](C=O)NC(=O)[C@H](CC(C)C)NC(=O)[C@H](CC(C)C)NC(=O)OCc1ccccc1", "note": "[MG-132, reference compound] (Cbz-Leu-Leu-Leu-aldehyde)", "values": [{"measurement": "HIF-1α detection by Western blot", "setting": "[7]", "value": "Stabilization of HIF-1α was enhanced"}, {"measurement": "HIF-1α detection by Western blot", "setting": "[2]", "value": "accumulation of a broad range of proteins that possibly represent ubiquitinated forms of HIF-1α"}]}, {"compound": "[Co+2]", "note": "[Co^2+, reference compound]", "values": [{"measurement": "HIF-1α and VEGF levels", "setting": "[8]", "value": "rapidly increase"}, {"measurement": "Loss of HIF-1α detection on simultaneous treatment with DBM plus metal", "setting": "[6]", "value": "not observed"}]}, {"compound": "O=C(CC(=O)c1ccccc1)c1ccccc1", "note": "[DBM, 1,3-diphenylpropane-1,3-dione]", "values": [{"measurement": "HIF-1α levels by Western blot", "setting": "[1]", "value": "significantly increased the levels of HIF-1α"}, {"measurement": "HIF-1α detection by Western blot", "setting": "[2]", "value": "readily detected"}, {"measurement": "HIF-1α detection by Western blot with MG-132 added", "setting": "[2]", "value": "did not stabilize these other forms of HIF-1α"}, {"measurement": "HIF-1α mRNA levels (PCR product)", "setting": "[3]", "value": "not significantly different from baseline"}, {"measurement": "HIF-1α levels by Western blot", "setting": "[4]; DBM alone at 100 μM", "value": "significant increase in HIF-1α levels"}, {"measurement": "HIF-1α and VEGF levels", "setting": "[8]", "value": "rapidly increase"}, {"measurement": "HIF-1α levels by Western blot", "setting": "[5]", "value": "significantly increased the levels of HIF-1α"}]}, {"compound": "[Fe+3]", "note": "[Fe^3+, reference compound]", "values": [{"measurement": "HIF-1α levels by Western blot, metal added to DBM", "setting": "[1]; 2 hours under 1% O2, with DBM", "value": "decreased slower migrating isoforms of HIF-1α"}, {"measurement": "HIF-1α levels by Western blot, metal added to DBM", "setting": "[5]; 2 hours under 1% O2, with DBM", "value": "did not significantly alter the effect of DBM on HIF-1α levels"}, {"measurement": "Loss of HIF-1α detection on simultaneous treatment with DBM plus metal", "setting": "[6]", "value": "not observed"}]}, {"compound": "bevacizumab: humanized monoclonal antibody specific for VEGF", "values": [{"measurement": "Clinical response", "setting": "[9]", "value": "Clinical responses have been observed"}]}, {"compound": "[Ni+2]", "note": "[Ni^2+]", "values": [{"measurement": "Loss of HIF-1α detection on simultaneous treatment with DBM plus metal", "setting": "[6]", "value": "not observed"}]}]}
